Experimental data as given in publication PMC4169579, “Proteolytic Activity of Prostate-Specific Antigen (PSA) towards Protein Substrates and Effect of Peptides Stimulating PSA Activity” (PLoS ONE, 2014).
Where two headings read alike, the source gives them in different places. Each block holds one substance with its values, some of them ahead of it.

Legend:
PSA [1] = target: T1, PSA (Homo sapiens, UniProt P07288); conditions: ref [15], [47]; cited from earlier work
T1 construct: from tissue; host or cells: pooled human seminal fluid
Description: Previously, several selective and efficient substrates for PSA have been described. We used a fluorogenic peptide substrate identified by Denmeade and coworkers (1997). […] These differences may be explained by higher activity of the highly pu ...

PSA [2] = target: T1, PSA; test: Enzyme kinetics of PSA with chromogenic peptide substrate S-2586; type: biochemical; conditions: S-2586 0.125–5 mM, 175 nM PSA, 0.1% BSA-TBS, room temperature, mean ± SD of two experiments
Method: (§1) The major form of active PSA (isoform PSA-B) was purified from pooled human seminal fluid by immunoaffinity chromatography followed by anion exchange chromatography. Semenogelins I and II were isolated from human seminal fluid as previously described, but instead of alkylating the proteins, the reducing agent 30 mM dithiothreitol (Sigma-Aldrich, St. Louis, MO) was included in all buffers during purification. Semenogelins were stored in the purification buffer containing 2 M urea and 5 mM EDTA at −70°C. Prior to cleavage by PSA, the buffer was exchanged to 50 mM Tris, pH 7.7, containing 0.15 M NaCl (TBS), with Amicon Ultra centrifugal filter units (MW cut-off 30 kDa) (Millipore, Cork, Ireland) at 4°C, and protein concentration was determined by measuring absorbance at 280 nm.
The proteolytic activity of PSA towards small peptide substrates was compared with two different substrates. […] The absorbance was measured at 405 nm immediately and at 5 min intervals for 30 min and fluorescence at 355/460 nm (excitation/emission) after 10 min, 20 min, 40 min, 1 h, 2 h and 4 h incubation at room temperature with a Victor 1420 Multilabel plate reader (PerkinElmer). […]
The maximum velocity of the reaction (Vmax) and the Michaelis constant (Km), i.e., substrate concentration at which the reaction rate is half of the maximum, were evaluated for PSA with both peptide substrates using Sigma Plot 11 with the Enzyme Kinetics Module 1.3 (SYSTAT Software, Inc., San Jose, CA) and the catalytic constant (kcat), i.e., the number of substrate molecules converted to product per time unit, was calculated from the equation kcat = Vmax/[PSA]. The absorbance was converted to molar concentration with the Lambert-Beer equation (A = εcl), using the molar absorptivity of pNA (εpNA = 8800 M^−1cm^−1). Fluorescence (counts per second, cps) was transformed to molar concentrations with SigmaPlot by means of a standard curve for 7-amido-4-methylcoumarin (AMC, Sigma-Aldrich).

HUVECs [3] = system: HUVECs; parameters: method as in PMID 10702407, PMID 20713592; conditions: full-length galectin-3; ref [55], [72]; cited from earlier work
HUVECs [4] = test: HUVEC tube formation assay on Matrigel; type: cell-based, human; conditions: two separate experiments
Method: Human umbilical vein endothelial cells (HUVECs) were isolated from umbilical cord veins and grown in Endothelial Cell Growth Medium (Promocell, Heidelberg, Germany) with 2% Ultroser G BioSepra serum substitute (PALL BioSepra, Cergy, France) and growth factors EGF and bFGF. For tube formation, HUVECs were grown on top of Matrigel (BD Biosciences) as described previously, [29].
To study the effect of PSA-cleaved protein fragments, 0.08 µM nidogen-1 or 0.4 µM galectin-3 (10 µg/ml each) were first incubated with 1 µM PSA for 24 h at 37°C in PBS (Lonza). Then PSA activity was blocked by one-hour incubation at room temperature with 2 µM monoclonal antibody 5C7 [38]. The mixture containing nidogen-1 or galectin-3 fragments with PSA blocked by antibody or the same amount of intact nidogen-1 or galectin-3 were added together with the cells onto gelled Matrigel and the cells were allowed to form tubular networks for 20 h. Control wells contained either PBS or 1 µM PSA. After overnight incubation, cell culture medium was collected from PBS and PSA control wells for SDS-PAGE and Western blotting. Images of tubular networks (100×magnification) were taken using an Axiovert 200 inverted light microscope connected to an AxioCam digital camera and visualized by AxioVision software (all from Zeiss, Göttingen, Germany).

PSA [5] = target: T1, PSA; conditions: reported to inhibit angiogenesis in vitro; ref [20]; cited from earlier work
Method: In the present study, we compared the proteolytic activity of PSA towards several protein substrates. As shown previously, semenogelins are cleaved very effectively by PSA. Malm and coworkers (2000) reported that more than half of semenogelin I is degraded after 15 min incubation with PSA [16], [63] and we observed this after 11 min incubation. Proteolysis of the other protein substrates, i.e., fibronectin, IGFBP-3, galectin-3 and nidogen-1, took much longer, reflecting the high substrate specificity of PSA for semenogelins. […] However, the detailed mechanism of the antiangiogenic activity of PSA remains unclear. Some of the proteolytically produced fragments of extracellular matrix (ECM) proteins act as endogenous angiogenesis inhibitors and may mediate the antiangiogenic effect of PSA. […] Although plasminogen ...

PSA [6] = target: T1, PSA; test: Proteolytic cleavage of protein substrates by PSA (SDS-PAGE, silver staining); type: biochemical; conditions: 22 h incubation, 37°C, different plasminogen preparations and PSA batches
Method: as §1
Protein LoBind tubes (Eppendorf AG, Hamburg, Germany) were used in all protein degradation experiments.
PSA (0.2–1 µM) and 0.5–1 µM of each protein substrate were incubated at 37°C for 22 h in TBS buffer. During the incubation, samples of 15 µl were taken at different time points: 0 min, 10 min, 30 min, 2 h, 5 h and 22 h, and stored at −20°C before further analysis.
Immediately after each incubation, reducing 4× SDS-loading buffer (8% SDS), containing 1 M β-mercaptoethanol or 75 mM dithiothreitol, was added to each sample and proteins were denatured at 70°C for 10 min. The samples were immediately analyzed by SDS-PAGE or frozen at −20°C. Frozen samples were heated again at 70°C before loading on the gel. The cleavage of protein substrates by PSA, i.e., the disappearance of the full-length protein bands, was quantified from scanned images of silver stained gels by the measurement of relative optical densities of the protein bands using ImageJ [40]. […]
Proteins were visualized either by silver staining or Western blotting. […] After 30 min incubation in 0.2% AgNO3, the gel was rinsed briefly with water and proteins were detected with development solution, containing 700 µl/l of 37% formaldehyde, 0.001% sodium thiosulfate and 3% anhydrous Na2CO3. […]

T1 sequence (P07288 25-261): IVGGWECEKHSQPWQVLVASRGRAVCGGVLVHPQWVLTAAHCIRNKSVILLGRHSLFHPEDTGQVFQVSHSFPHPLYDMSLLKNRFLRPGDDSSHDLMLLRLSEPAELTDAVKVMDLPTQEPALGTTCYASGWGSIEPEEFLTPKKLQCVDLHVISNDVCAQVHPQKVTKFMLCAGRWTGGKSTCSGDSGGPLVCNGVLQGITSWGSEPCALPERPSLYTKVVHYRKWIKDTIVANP

Substance: MeO-Suc-Arg-Pro-Tyr-pNA·HCl [Chromogenic substrate, chromogenic chymotrypsin substrate S-2586]
kcat/Km reported previously, compared to this study (PSA [1]): somewhat lower than that we observed | Km (PSA [2]; 405 nm, 5 min intervals for 30 min): 5.72 ± 1.53 mM | kcat/Km (PSA [2]): 133.4±24.6 s^−1M^−1 | kcat (PSA [2]; kcat = Vmax/[PSA]): 0.75 ± 0.07 s⁻¹

Substance: galectin-3: recombinant human galectin-3
angiogenesis (HUVECs [3]): promote angiogenesis | effect on tube formation, PSA-generated fragments (HUVECs [4]; 10 µg/ml (0.08 µM nidogen-1, 0.4 µM galectin-3) precleaved by 1 µM PSA 24 h, PSA blocked by mAb 5C7, 20 h): did not have any effect on tube formation | effect on tube formation, full-length protein (HUVECs [4]; 10 µg/ml (0.08 µM nidogen-1, 0.4 µM galectin-3), 20 h, HUVECs on Matrigel): did not have any effect on tube formation

cleavage of plasminogen by PSA (PSA [6]): PSA did not cleave plasminogen
Substance: plasminogen: plasminogen (Calbiochem and Hyphen BioMed) and lys-plasminogen from human plasma
cleavage of plasminogen by PSA (PSA [5]): cleave plasminogen to angiostatin-like fragments
